Assay results as given in BindingDB's records for doi:10.1021/jm00043a010 (University of South Florida, 1994).

Target: Adenosine receptor A1 (Mesocricetus auratus)
Experiment: Inhibition of specific binding of [3H]CPX to the A1 adenosine receptor in DDT1 MF-2 (DDT) cells.

Compared with `CCCn1c(=O)c2[nH]c(CNC(=O)CBr)nc2n(CCC)c1=O` [2-Bromo-N-(2,6-dioxo-1,3-dipropyl-2,3,6,7-tetrahydro-1H-purin-8-ylmethyl)-acetamide], `CCCn1c(=O)c2[nH]c(CCNC(=O)CBr)nc2n(CCC)c1=O` [2-Bromo-N-[2-(2,6-dioxo-1,3-dipropyl-2,3,6,7-tetrahydro-1H-purin-8-yl)-ethyl]-acetamide] is 2.8-fold lower in IC50: 11 µM for the first, 4 µM for the second.

Compared with `CCCn1c(=O)c2[nH]c(CCCCCNC(=O)CBr)nc2n(CCC)c1=O` [2-Bromo-N-[5-(2,6-dioxo-1,3-dipropyl-2,3,6,7-tetrahydro-1H-purin-8-yl)-pentyl]-acetamide], `CCCn1c(=O)c2[nH]c(CCCCCN3C(=O)C=CC3=O)nc2n(CCC)c1=O` [8-[5-(2,5-Dioxo-2,5-dihydro-pyrrol-1-yl)-pentyl]-1,3-dipropyl-3,7-dihydro-purine-2,6-dione] is 1.8-fold higher in IC50: 1.2 µM for the first, 2.2 µM for the second. The first is the more potent here.

`CCCn1c(=O)c2[nH]c(NC(=O)c3cccc(S(=O)(=O)F)c3)nc2n(CCC)c1=O` [3-(2,6-Dioxo-1,3-dipropyl-2,3,6,7-tetrahydro-1H-purin-8-ylcarbamoyl)-benzenesulfonyl fluoride] and `CCCn1c(=O)c2[nH]c(NC(=O)c3ccc(S(=O)(=O)F)cc3)nc2n(CCC)c1=O` [4-(2,6-Dioxo-1,3-dipropyl-2,3,6,7-tetrahydro-1H-purin-8-ylcarbamoyl)-benzenesulfonyl fluoride] are within 1.5-fold of each other in IC50: 3.5 µM for the first, 4.2 µM for the second.

Compared with `CCCn1c(=O)c2[nH]c(C3CCCC3)nc2n(CCCOC(=O)c2cccc(S(=O)(=O)F)c2)c1=O` [3-Fluorosulfonyl-benzoic acid 3-(8-cyclopentyl-2,6-dioxo-1-propyl-1,2,6,7-tetrahydro-purin-3-yl)-propyl ester], `CCCn1c(=O)c2[nH]c(C3CCC(OC(=O)c4ccc(S(=O)(=O)F)cc4)C3)nc2n(CCC)c1=O` (centres undefined) [4-Fluorosulfonyl-benzoic acid 3-(2,6-dioxo-1,3-dipropyl-2,3,6,7-tetrahydro-1H-purin-8-yl)-cyclopentyl ester] is 3-fold higher in IC50: 0.02 µM for the first, 0.06 µM for the second. The first is the more potent here.

Compared with `CCCn1c(=O)c2[nH]c(CCCNC(=O)c3cccc(S(=O)(=O)F)c3)nc2n(CCC)c1=O` [3-[3-(2,6-Dioxo-1,3-dipropyl-2,3,6,7-tetrahydro-1H-purin-8-yl)-propylcarbamoyl]-benzenesulfonyl fluoride], `CCCn1c(=O)c2[nH]c(CCNC(=O)c3ccc(S(=O)(=O)F)cc3)nc2n(CCC)c1=O` [4-[2-(2,6-Dioxo-1,3-dipropyl-2,3,6,7-tetrahydro-1H-purin-8-yl)-ethylcarbamoyl]-benzenesulfonyl fluoride] is 3.7-fold lower in IC50: 2.6 µM for the first, 0.7 µM for the second.

First: CCCn1c(=O)c2[nH]c(CNC(=O)c3ccc(S(=O)(=O)F)cc3)nc2n(CCC)c1=O [4-[(2,6-Dioxo-1,3-dipropyl-2,3,6,7-tetrahydro-1H-purin-8-ylmethyl)-carbamoyl]-benzenesulfonyl fluoride]
Second: CCCn1c(=O)c2[nH]c(CNC(=O)c3ccccc3)nc2n(CCC)c1=O [N-(2,6-Dioxo-1,3-dipropyl-2,3,6,7-tetrahydro-1H-purin-8-ylmethyl)-benzamide]
The IC50 of the first is 3.1-fold lower: 2 µM for the first, 6.3 µM for the second. The first is the more potent here.

Compared with `CCCn1c(=O)c2[nH]c(-c3ccc(Cl)c([N+](=O)[O-])c3)nc2n(CCC)c1=O` [8-(4-Chloro-3-nitro-phenyl)-1,3-dipropyl-3,7-dihydro-purine-2,6-dione], `O=C(OCCCn1c(=O)c2[nH]c(C3CCCC3)nc2n(CCCOC(=O)c2ccc(S(=O)(=O)F)cc2)c1=O)c1ccc(S(=O)(=O)F)cc1` [8-cyclopentyl-1,3-di[3-(4-fluorosulfonylphenylcarbonyloxy)propyl]-2,6-dioxo-2,3,6,7-tetrahydro-1H-purine] is 2-fold lower in IC50: 7 µM for the first, 3.5 µM for the second.
